IC50 data for one molecule are collected here from patent publication US20100234438A1, “THERAPEUTIC AGENTS” (priority 2006, published 2010).

This assay deals with T1, CB1 receptor (Homo sapiens, UniProt P21554).
T1 construct: expressed in transfected cells
Nature of the assay: [35S]-GTPγS binding assay on membranes from cells stably transfected with the CB1 gene, inhibition of agonist CP55940 (EC80). It counts as biochemical. The note with it: half maximal inhibition of GTPγS binding in presence of EC80 concentration of CP55940; 30° C., 45 min. How it is done:
The compound of the present invention is active against the receptor product of the CB1 gene. The affinity of the compounds of the invention for central cannabinoid receptors is demonstrable in methods described in Devane et al, Molecular Pharmacology, 1988, 34,605 or those described in WO01/70700 or EP 656354. Alternatively the assay may be performed as follows.
10 μg of membranes prepared from cells stably transfected with the CB1 gene were suspended in 200 μl of 100 mM NaCl, 5 mM MgCl2, 1 mM EDTA, 50 mM HEPES (pH 7.4), 1 mM DTT, 0.1% BSA and 100 μM GDP. To this was added an EC80 concentration of agonist (CP55940), the required concentration of test compound and 0.1 μCi [^35S]-GTPγS. The reaction was allowed to proceed at 30° C. for 45 min. […] Filters were then covered with scintilant and counted for the amount of [^35S]-GTPγS retained by the filter.
Activity is measured in the absence of all ligands (minimum activity) or in the presence of an EC80 concentration of CP55940 (maximum activity). […] At various concentrations of novel ligand, activity is calculated as a percentage of the maximum activity and plotted. The data are fitted using the equation y=A+((B−A)/1+((C/x) ÙD)) and the IC50 value determined as the concentration required to give half maximal inhibition of GTPγS binding under the conditions used.

The structures appear in SMILES notation. pIC50: −log10 of the molar value.

T1 sequence (P21554 whole entry): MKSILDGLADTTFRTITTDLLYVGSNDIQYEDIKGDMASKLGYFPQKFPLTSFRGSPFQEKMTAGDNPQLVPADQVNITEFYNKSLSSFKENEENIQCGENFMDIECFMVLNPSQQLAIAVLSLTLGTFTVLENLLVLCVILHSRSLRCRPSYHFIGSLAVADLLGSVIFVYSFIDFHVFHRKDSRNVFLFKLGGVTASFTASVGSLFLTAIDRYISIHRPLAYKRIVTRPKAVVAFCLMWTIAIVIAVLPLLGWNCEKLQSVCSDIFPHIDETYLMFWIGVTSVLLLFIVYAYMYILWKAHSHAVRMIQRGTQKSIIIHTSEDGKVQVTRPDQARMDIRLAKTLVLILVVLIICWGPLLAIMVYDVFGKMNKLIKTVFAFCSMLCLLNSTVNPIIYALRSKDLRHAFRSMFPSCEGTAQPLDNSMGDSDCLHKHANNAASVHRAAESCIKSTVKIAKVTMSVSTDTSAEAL

The pIC50 is the negative decadic logarithm of the IC50, by convention in mol/L. Consider `O=C(N[C@@H]1CCCC[C@@H]1O)c1nn(-c2ccc(Cl)cc2Cl)c(-c2ccc(OS(=O)(=O)CCC(F)(F)F)cc2)c1CO` (single isomer, unassigned) [Example 1, (−)3,3,3-Trifluoro-propane-1-sulfonic acid 4-[2-(2,4-dichloro-phenyl)-5-(2-hydroxy-cyclohexylcarbamoyl)-4-hydroxymethyl-2H-pyrazol-3-yl]-phenyl ester], for which the pIC50 is 8.64.
